Laboratory results: patent publication US20200131669A1, “CYCLIC PEPTIDE COMPOUND HAVING HIGH MEMBRANE PERMEABILITY, AND LIBRARY CONTAINING SAME” (Chugai Seiyaku Kabushiki Kaisha, priority 2017, published 2020)
Starred links: 1 amine or outer side, 2 acyl side, 3 side chain; linkers in the order of their positions; H or OH if unused. Positions of bridges follow the written chain, without caps; N, C: chain ends. Non-standard residues stand in square brackets, D forms with d. Residues, ends and D or L forms follow the SMILES beside them. *: point of attachment. X17 = O=C([C@H](CCCC(O)C(F)(F)F)N[*:1])[*:2]; NMeF = CN[C@@H](Cc1ccccc1)C(=O)O; NMeI = CC[C@H](C)[C@H](NC)C(=O)O; dNMeF = CN[C@H](Cc1ccccc1)C(=O)O; CH2CH(OH)CF3 = OC(C*)C(F)(F)F; NMeL = CN[C@@H](CC(C)C)C(=O)O; dNMeL = CN[C@H](CC(C)C)C(=O)O; Propyl(2R-OH) = C[C@@H](O)C*; NMeV = CN[C@H](C(=O)O)C(C)C; NMeAbu = CC[C@H](NC)C(=O)O; NMeA = CN[C@@H](C)C(=O)O; Piperidide = C1CCN(*)CC1; NBuGly = CCCCNCC(=O)O; Ethyl(2-OH) = OCC*; Sar = CNCC(=O)O; tBu = CC(C)(C)*

Test: Caco-2 membrane permeability, improved method as used in the following Examples (96-well, 20 to 24 h preincubation)
Type: in vitro ADME
Conditions: Caco-2, Caco-2; for Papp A→B at 180 min: human
In short: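 Papp (cm/sec) was derived from LC/MS of basal samples collected 180 min after apical dosing in FaSSIF/HBSS pH 6.0 with 1% DMSO, against a basal HBSS pH 7.4 receiver containing 4% BSA. Three-week Caco-2 cultures were first preincubated with compound in DMEM+FaSSIF at 37 °C for 20–24 h.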

SMILES | Papp A→B at 180 min | Papp A→B
CC[C@H](C)[C@H]1C(=O)N[C@@H](COC[C@@H](C)O)C(=O)N(C)CC(=O)N(C)[C@@H](CC(C)C)C(=O)N[C@H](C(=O)N2CCCCC2)CC(=O)N(C)[C@@H](C)C(=O)N[C@@H](CC(C)C)C(=O)N(C)[C@@H](CC(C)C)C(=O)N(C)[C@@H](Cc2ccccc2)C(=O)N[C@@H](CC(C)C)C(=O)N(C)[C@@H](Cc2ccccc2)C(=O)N1C [pd494] ([NMeA]L[NMeL][NMeF]L[NMeF][NMeI]S(Propyl(2R-OH))[Sar][NMeL]D-Piperidide; lactam N-11) | 5.2 ×10⁻⁶ cm/s | 
CC[C@H](C)[C@H]1C(=O)N[C@@H](C(C)C)C(=O)N(C)CC(=O)N(C)[C@@H](CC(C)C)C(=O)N[C@H](C(=O)N2CCCCC2)CC(=O)N(C)[C@@H](C)C(=O)N[C@@H](COC[C@@H](C)O)C(=O)N(C)[C@H](CC(C)C)C(=O)N(C)[C@@H](Cc2ccccc2)C(=O)N[C@@H](CC(C)C)C(=O)N(C)[C@@H](Cc2ccccc2)C(=O)N1C [pd495] ([NMeA]S(Propyl(2R-OH))[dNMeL][NMeF]L[NMeF][NMeI]V[Sar][NMeL]D-Piperidide; lactam N-11) | 3.7 ×10⁻⁶ cm/s | 
CCCCN1CC(=O)N(C)[C@H](Cc2ccccc2)C(=O)N(C)[C@@H](CC(C)C)C(=O)N[C@@H](COC(C)(C)C)C(=O)N(C)[C@@H](CC(C)C)C(=O)N[C@H](C(=O)N2CCCCC2)CC(=O)N(C)CC(=O)N(C)[C@@H](Cc2ccccc2)C(=O)N[C@@H](C(C)C)C(=O)N(C)[C@@H](CC(C)C)C(=O)N[C@@H](COC[C@@H](C)O)C1=O [pd496] ([Sar][NMeF]V[NMeL]S(Propyl(2R-OH))[NBuGly][dNMeF][NMeL]S(tBu)[NMeL]D-Piperidide; lactam N-11) | 1 ×10⁻⁶ cm/s | 
CC[C@H](C)[C@@H]1NC(=O)[C@H](CC(C)C)N(C)C(=O)[C@H](COC[C@@H](C)O)NC(=O)[C@H](Cc2ccccc2)N(C)C(=O)CN(C)C(=O)C[C@@H](C(=O)N2CCCCC2)NC(=O)[C@H](CC(C)C)N(C)C(=O)[C@H](COC(C)(C)C)NC(=O)[C@H](CC(C)C)N(C)C(=O)[C@H](Cc2ccccc2)N(C)C(=O)CN(C)C1=O [pd497] ([Sar][NMeF]S(Propyl(2R-OH))[NMeL]I[Sar][NMeF][NMeL]S(tBu)[NMeL]D-Piperidide; lactam N-11) | 3.3 ×10⁻⁶ cm/s | 
CC[C@H](C)[C@H]1C(=O)N[C@@H](COCCO)C(=O)N(C)CC(=O)N(C)[C@@H](CC(C)C)C(=O)N[C@H](C(=O)N2CCCCC2)CC(=O)N(C)[C@@H](C)C(=O)N[C@@H](CC(C)C)C(=O)N(C)[C@@H](CC(C)C)C(=O)N(C)[C@@H](Cc2ccccc2)C(=O)N[C@@H](CC(C)C)C(=O)N(C)[C@@H](Cc2ccccc2)C(=O)N1C [pd499] ([NMeA]L[NMeL][NMeF]L[NMeF][NMeI]S(Ethyl(2-OH))[Sar][NMeL]D-Piperidide; lactam N-11) | 4.7 ×10⁻⁶ cm/s | 
CC[C@H](C)[C@H]1C(=O)N[C@@H](C(C)C)C(=O)N(C)CC(=O)N(C)[C@@H](CC(C)C)C(=O)N[C@H](C(=O)N2CCCCC2)CC(=O)N(C)[C@@H](C)C(=O)N[C@@H](COCCO)C(=O)N(C)[C@H](CC(C)C)C(=O)N(C)[C@@H](Cc2ccccc2)C(=O)N[C@@H](CC(C)C)C(=O)N(C)[C@@H](Cc2ccccc2)C(=O)N1C [pd500] ([NMeA]S(Ethyl(2-OH))[dNMeL][NMeF]L[NMeF][NMeI]V[Sar][NMeL]D-Piperidide; lactam N-11) | 2.2 ×10⁻⁶ cm/s | 
CC[C@H](C)[C@@H]1NC(=O)[C@H](CC(C)C)N(C)C(=O)[C@H](CCCC(O)C(F)(F)F)NC(=O)[C@H](Cc2ccccc2)N(C)C(=O)CN(C)C(=O)C[C@@H](C(=O)N2CCCCC2)NC(=O)[C@H](CC(C)C)N(C)C(=O)[C@H](COC(C)(C)C)NC(=O)[C@H](CC(C)C)N(C)C(=O)[C@H](Cc2ccccc2)N(C)C(=O)CN(C)C1=O (stereo partly drawn) [pd502] ([Sar][NMeF][X17][NMeL]I[Sar][NMeF][NMeL]S(tBu)[NMeL]D-Piperidide; lactam N-11) |  | 1 ×10⁻⁶ cm/s
CC[C@H]1C(=O)N(C)[C@@H](Cc2ccccc2)C(=O)N[C@@H](CC(C)C)C(=O)N(C)[C@@H](Cc2ccccc2)C(=O)N(C)[C@@H](C(C)C)C(=O)N[C@@H](COCC(O)C(F)(F)F)C(=O)N(C)CC(=O)N(C)[C@@H](CC(C)C)C(=O)N[C@H](C(=O)N2CCCCC2)CC(=O)N(C)[C@@H](C)C(=O)N[C@@H](CC(C)C)C(=O)N1C (stereo partly drawn) [pd503] ([NMeA]L[NMeAbu][NMeF]L[NMeF][NMeV]S(CH2CH(OH)CF3)[Sar][NMeL]D-Piperidide; lactam N-11) | 2 ×10⁻⁶ cm/s | 
CC[C@H](C)[C@@H]1NC(=O)[C@H](CC(C)C)N(C)C(=O)[C@H](COCC(O)C(F)(F)F)NC(=O)[C@H](Cc2ccccc2)N(C)C(=O)CN(C)C(=O)C[C@@H](C(=O)N2CCCCC2)NC(=O)[C@H](CC(C)C)N(C)C(=O)[C@H](COC(C)(C)C)NC(=O)[C@H](CC(C)C)N(C)C(=O)[C@H](Cc2ccccc2)N(C)C(=O)CN(C)C1=O (stereo partly drawn) [pd504] ([Sar][NMeF]S(CH2CH(OH)CF3)[NMeL]I[Sar][NMeF][NMeL]S(tBu)[NMeL]D-Piperidide; lactam N-11) | 4.1 ×10⁻⁶ cm/s | 
